Measured values from ChEMBL document CHEMBL3507680, “University of Dundee, Gates Library screen for HepG2 cell viability”.

Assay: Human HepG2 cell viability assay in 384 well format
Type: toxicity, cell-based
Parameters: dose 125 nL, time 70.5 hour; cytotoxicity at 70.5 h: concentration not given beside the values
Conditions: HepG2 cells, read-out: Inhibition

Row | Structure (SMILES) | cytotoxicity at 70.5 h [%]
1 | O=C(CCn1ccccc1=O)Nc1ccc(F)c(Cl)c1 | -11.7
2 | Cn1c(Nc2cn[nH]c2)c(C#N)c(=O)n(C)c1=O | 11.5
3 | CCN(CC)c1ccc(C(=O)NCc2cccnc2-n2cncn2)cn1 | -10.7
4 | Cc1ccccc1OCCC(=O)OC(C)C(=O)Nc1sccc1C(N)=O (centres undefined) | -7.64
5 | COc1cccc(CNC(CN2CCN(C)CC2)c2ccccc2)c1 (centres undefined) | 5.01
6 | Cc1ccc(CNC(CN2CCN(C)CC2)c2ccccc2)cc1 (centres undefined) | 3.21
7 | C[S+]([O-])c1nncn1CC(=O)c1cccc(Cl)c1 (centres undefined) | -7.53
8 | C[S+]([O-])c1nncn1CC(=O)c1ccc2c(c1)CCO2 (centres undefined) | -2.98
9 | CC1CN=C(N2CCN(C(=O)Nc3nc(-c4ccccc4)ns3)CC2)S1 (centres undefined) | 9.01
10 | Cc1ccc(NC(=O)NC(C)c2nc[nH]n2)cc1 (centres undefined) | -5.24
11 | CC(C)(C)N1CCCN(C(=O)c2csc(S(N)(=O)=O)c2)CC1 | 15.7
12 | Cc1cnc(CN2CCC(N(C)Cc3nnc(C4CC4)n3C)C2)cn1 (centres undefined) | -11
13 | CCCN1CCC(N(Cc2ncc(C)o2)C(C)=O)C1 (centres undefined) | -8
14 | CN(C)C(CNC(=O)NCCc1cccc(O)c1)c1ccco1 (centres undefined) | -5.87
15 | O=C(CCc1cc(F)ccc1F)NS(=O)(=O)c1ccc2c(c1)OCCO2 | 0.522
16 | O=C(CCc1c(F)cccc1F)NS(=O)(=O)c1ccc2c(c1)OCCO2 | -6.92
17 | O=C(CCc1ccccc1Br)NS(=O)(=O)c1ccc2c(c1)OCCO2 | -1.54
18 | Cc1cn2nc(N3CCN(Cc4c(C)noc4C)CC3)sc2n1 | 0.994
19 | Cc1cn2nc(N3CCN(Cc4nc(C(C)C)no4)CC3)sc2n1 | 19.7
20 | COc1ccccc1C(=O)N1CCN(C(=O)Cc2ccccn2)CC1 | -6.85

Row | Structure (SMILES) | cytotoxicity at 70.5 h [%]
21 | Cc1ccc(C(=O)N2CCN(C(=O)Cc3ccccn3)CC2)c(C)c1 | -5.32
22 | Cc1ccc(-c2nc(CN3CCCC(C(=O)N(C)C)C3)cs2)o1 (centres undefined) | 1.88
23 | Cc1nccn1C1CCCN(C(=O)CCNc2ncccn2)C1 (centres undefined) | -3.44
24 | CCc1nc(CN2CCCN(CC(O)c3ccccc3)CC2)no1 (centres undefined) | -8.08
25 | Cc1nn(C)c(N(C)C)c1CNCc1ccnc(N2CCCCC2)c1 | -2.08
26 | CCC(O)CN1CCN(C(=O)c2ccn(C)c(=O)c2)CC1 (centres undefined) | -9.11
27 | COCc1nc(C(=O)N2CCCC2c2cc(C)on2)cs1 (centres undefined) | -9.83
28 | CCOc1cccc(C(=O)N2CCC(c3n[nH]c(C4CC4)n3)CC2)c1 | -8.11
29 | CC(NC(=O)NCCCN(C)S(C)(=O)=O)c1cccnc1 (centres undefined) | -7.17
30 | COCc1nc(C(=O)N2CCCC2c2noc(C)n2)cs1 (centres undefined) | -9.63
31 | Cc1nn(C)c(N(C)C)c1CNCc1ccnc(N2CCCC2)c1 | -4.33
32 | O=C(CCc1nccs1)N1CCCC(n2ccnc2)C1 (centres undefined) | -11.8
33 | CS(=O)(=O)NCCCNC(=O)NCc1ccccc1 | -8.73
34 | CC(=O)Nc1nc(C(=O)NCc2ccc(N3CCOC(C)C3)nc2)cs1 (centres undefined) | -7.71
35 | CC(=O)Nc1nc(C(=O)NCc2ccnc(N3CCCC3)c2)cs1 | -6.6
36 | CC(=O)Nc1nc(C(=O)NCc2ccc(N3CCCC3)nc2)cs1 | -7.65
37 | CC(NC(=O)NCCCN(C(C)C)S(C)(=O)=O)c1ccncc1 (centres undefined) | -2.51
38 | Cc1cccc(C(=O)NCc2ccc(N3CCCCCC3)nc2)n1 | -6.26
39 | CC(NC(=O)NCCCN(C)S(C)(=O)=O)c1ccc(Cl)cc1 (centres undefined) | -7.7
40 | Cc1ccc(CNC(=O)CCNS(C)(=O)=O)cc1 | -5.54

Row | Structure (SMILES) | cytotoxicity at 70.5 h [%]
41 | COc1ccc(CNC(=O)NCCCNS(C)(=O)=O)cc1OC | -8.21
42 | CN(C)c1ccc(C(=O)N2CCC(c3n[nH]c(C4CC4)n3)CC2)cc1 | -6.1
43 | COc1cc(Cl)ccc1C(=O)NCc1nncn1C | -6.32
44 | CCc1cccc(N2CCC(NC(=O)c3ccco3)CC2)c1 | -3.29
45 | O=C(c1ccc2c(c1)CCC2)N1CCC(c2n[nH]c(C3CC3)n2)CC1 | -7.78
46 | CC(=O)Nc1nc(C(=O)NCc2ccc(N3CCCCC3)cc2)cs1 | -3.91
47 | Cc1cc(C)n(C2CN(CC(=O)NC(C3CC3)C3CC3)C2)n1 | -3.88
48 | Cc1cc(C)n(C2CN(CCC(=O)NC3CCCCC3)C2)n1 | -4.9
49 | Cc1cc(C)n(CC2CCCN2C(=O)c2cnccn2)n1 (centres undefined) | 14.8
50 | COc1ccccc1NC(=O)NCC(O)c1ccc(F)cc1F (centres undefined) | 17.3
51 | CCOc1c(Br)cc(/C=C/c2ncc(C(=O)O)s2)cc1OC | -11.1
52 | Cn1cc(C(=O)NCC2CCN(C(=O)NC3CC3)CC2)cn1 | -19.1
53 | Cc1cnn(C2CCCN(C(=O)c3ccc(Cn4ccnc4)cc3)C2)c1 (centres undefined) | 17.4
54 | COC(=O)C(c1cc(F)ccc1F)N(C)C(=O)c1cnc(C)cn1 (centres undefined) | -9.59
55 | Cc1ccc(NC2CCN(C(=O)COc3ccccc3)CC2)nn1 | -15.7
56 | Cc1ccc(NC2CCN(C(=O)COC3CCCC3)CC2)nn1 | -8.07
57 | CCc1c(C)[nH]c(C(C)(N)CC)nc1=O (centres undefined) | -10.4
58 | CCc1c(C)[nH]c(C(C)(C)N)nc1=O | -7.1
59 | CCCNCc1cn(C)nc1-c1cccnc1 | -7.26
